Experimental data: article PMC9616048, “Thermal proteome profiling reveals Haemonchus orphan protein HCO_011565 as a target of the nematocidal small molecule UMW-868” (Frontiers in Pharmacology, 2022)

How the values were obtained:
[1] = tested on: mitochondria of HepG2 human hepatoma cells; assay: Mitochondrial toxicity in HepG2 cells (galactose medium); format: cell-based; conditions: HepG2, 48 h
Experimental: (§1) The toxicities of compounds on cell and mitochondria were assessed to estimate their half-maximal cytotoxic concentrations (CC50) and half-maximal mitotoxic concentrations (MC50), respectively. HepG2 human hepatoma cells were seeded into wells of a 96-well plate at a density of 5.5 × 10^4 cells per well in 80 µl of Dulbecco’s modified eagle medium (DMEM; with GlutaMax™ cat. no. 10566016 or 4 mM L-glutamine cat. no. 11966025; Thermo Fisher Scientific), supplemented with 25 mM D-glucose (cytotoxicity) or D-galactose (mitotoxicity), 10% (v/v) inactivated foetal bovine serum (iFBS), 100 IU/ml of penicillin, 100 μg/ml of streptomycin and 0.25 μg/ml of amphotericin B (designated DMEM*). Cells were allowed to adhere for 16 h at 37°C and 5% (v/v) CO2 at > 90% relative humidity, then, incubated for 48 h with individual, serially-diluted compounds (two-fold serial dilution in DMEM*; […]) in a final volume of 100 µl. For the assessment of toxicity on mitochondria, cells were starved of serum (DMEM* without iFBS) for 4 h prior to the 48 h-incubation with compounds ([Swiss and Will, 2011]; [Kamalian et al., 2015]). Two positive control compounds, doxorubicin (cytotoxic control) and M-666 (mitotoxic control) were each added to three individual wells in each 96-well plate at a single concentration of 10 µM. DMEM* + 0.25% (v/v) DMSO was added to 12 wells in each plate as negative controls. Monepantel and moxidectin were also serially diluted — prepared in the same manner as test compounds — and used as (“non-toxic”) reference compounds. After 48 h of incubation, cell viability was determined by the crystal violet staining method ([Śliwka et al., 2016]). The absorbance (595 nm) of treated cells was normalised with reference to the negative control (100% viability). To determine the CC50 and MC50 values, compound concentrations were log10-transformed, baseline-corrected using a respective positive control (doxorubicin or M-666) and fitted using a variable slope four-parameter equation with a least squares (ordinary) fit model using GraphPad Prism software (v.9.1.2). Compounds and controls were tested in triplicate.

[2] = tested on: H. contortus fourth-stage larvae (L4s) development; assay: Dose-response evaluation, L4 development; format: cell-based, Haemonchus contortus; conditions: Haemonchus contortus; 168 h, analog series; read-out: L4 development inhibition (IC50 in µM)
Experimental: (§2) These evaluations were carried out to estimate the half-maximal inhibitory concentrations (IC50 values) for hit compounds against H. contortus xL3s. With reference to the two positive-control compounds (monepantel and moxidectin), IC50 values for compounds were estimated ([Preston et al., 2015]; [Taki et al., 2021a]) using two-fold serial dilution (in LB*; 9 points from 50 μM to 0.2 µM) in 96-well plates (cat. no. 3596; Corning) with larvae at a density of 300 H. contortus xL3s in 100 µl per well. Plates containing H. contortus xL3s were incubated at 38°C, 10% (v/v) CO2 and >90% relative humidity.
(§3) The motility of H. contortus xL3s and L4 development were measured following 168 h of incubation with compound ([Taki et al., 2021a]). Compound concentrations were log10-transformed and fitted using a variable slope four-parameter equation, constraining the highest value to 100% employing a least squares (ordinary) fit model using GraphPad Prism software (v.9.1.2). Compounds were tested by three independent experiments in triplicate. A one-way analysis of variance (ANOVA) with a Tukey’s multiple comparison test or an unpaired t-test was used to establish statistically significant differences in larval motility or development.

eggs of H. contortus = assay: Egg hatch assay; format: cell-based; conditions: Haemonchus contortus, 48 h; read-out: Egg hatch inhibition (IC50 in µM)
Experimental: Compounds were also assessed for their effect on the hatching of eggs of H. contortus in vitro. To do this, eggs were isolated from the faeces from sheep with patent (30 day-) H. contortus infection by sucrose flotation ([Mes et al., 2007]). Eggs were suspended in H2O at a concentration of one egg per µl. The eggs were dispensed into wells (in triplicate; 100 eggs per well) and incubated with two-fold serial dilutions (9 points from 50 μM to 0.2 µM in H2O) of individual test or control compounds for 48 h at 27°C and >90% relative humidity; wells with no compound were also included. The numbers (percentages) of eggs from which first-stage larvae (L1s) hatched were counted using a light microscope (M80, Leica) at a 40-times magnification. With reference to positive-control compounds (i.e., monepantel and moxidectin), IC50 values of compounds were calculated.

[3] = Cellular toxicity in HepG2 cells (crystal violet); format: cell-based, human; conditions: human, HepG2 human hepatoma cells; HepG2, 48 h; read-out: Cytotoxicity (48 h) CC50
Experimental: as §1

H. contortus xL3s = assay: Dose-response evaluation, xL3 motility; format: cell-based; conditions: Haemonchus contortus, 168 h, analog series; read-out: xL3 motility reduction (IC50 in µM)
Experimental: as §2
as §3, with “Compound” for “The motility of H. contortus xL3s and L4 development were measured following 168 h of incubation with compound ([Taki et al., 2021a]). Compound”

[4] = tested on: H. contortus xL3 to L4 development; assay: High throughput screen, larval development and phenotype at 168 h; format: cell-based, Haemonchus contortus; conditions: for inhibition at 20 µM: Haemonchus contortus, development to L4
Experimental: Following the measurement of xL3 motility, plates were incubated again for 78 h (i.e., a total of 168 h) under the same conditions. Thereafter, 40 µl of 1% (v/v) iodine were added to individual wells, and worms examined using a light microscope (M80, Leica) at 60-times magnification to assess larval development, based on the presence/absence of a well-developed pharynx ([Sommerville, 1966]), and/or phenotypic alterations with respect to untreated xL3s.

[5] = tested on: exsheathed third-stage larvae (xL3s) of H. contortus; assay: High throughput screen, xL3 motility (infrared light beam-interference); format: cell-based; conditions: Haemonchus contortus, 90 h, read-out: Motility reduction at 90 h (%)
Experimental: An established platform was used for compound screening ([Taki et al., 2021a]). Using a semi-automated liquid handling robot (VIAFLO ASSIST PLUS, Integra Biosciences), compounds were individually diluted to […] in LB* containing 0.2% (v/v) DMSO and then dispensed in 20 µl into the wells of sterile 384-well flat bottom microtitre plates (cat. no. 3680; Corning); 320 compounds were arrayed on each plate, with 16 wells being negative controls (with LB* + 0.2% DMSO) and four wells containing each monepantel (Zolvix; Elanco), moxidectin (Cydectin; Virbac), monepantel + abamectin (Zolvix Plus; Elanco) and compound MIPS-0018666 (abbreviated here as M-666) ([Le et al., 2018]) as positive controls (20 µM). Following the dilution and dispensing of compounds into plates, 80 H. contortus xL3s in 20 μl of LB* were transferred to individual wells; after this step, the final concentrations were 20 µM of test- or positive-control compound, and 0.2% of DMSO. During dispensing, xL3s were maintained in a homogenous suspension using a constant stream of bubbles produced employing an aquarium pump (H2Pro). Plates containing H. contortus xL3s were incubated at 38 °C, 10% (v/v) CO2 and >90% relative humidity.
After 90 h of incubation with compounds (20 μM), H. contortus xL3s motility was measured for 15 min in individual wells of each plate by infrared light beam-interference ([Simonetta and Golombek, 2007]) using a WMicroTracker ONE instrument (Phylumtech). Raw data captured were normalised against measurements obtained for the positive (monepantel) and negative (LB* + 0.2% DMSO) controls to remove plate-to-plate variation by calculating the percentage of motility using the program GraphPad Prism (v.9.1.2; GraphPad Software). A compound was considered active (“hit”) if it reduced larval motility by ≥ 70%. To continually assess the performance of the screening assay, the Z′-factor ([Zhang et al., 1999]) was calculated (using data for the DMSO and the M-666 controls) for individual plates (n = 43) and was consistently ≥0.7; reliable assays achieve a Z′-factor of between 0.5 and 1. The signal to background (S/B) ratio (for the same controls) ([Sui and Wu, 2007]) was consistently >200.

SMILES	Mitotoxicity (48 h) MC50 [1] [µM]	IC50 [2] [µM]	IC50 (eggs of H. contortus) [µM]	CC50 at 48 h [3] [µM]	IC50 (H. contortus xL3s) [µM]	inhibition at 20 µM [4] [%]	inhibition at 20 µM [5] [%]	Abnormal phenotype detected at 168 h ([4]; 20 µM)
CCCc1ccc(-c2nc(-c3ccccc3)no2)cc1 [Compound A-3126]	> 50.0	50	13.1	> 50	12.1	–	–	–
CCOc1ccc(-c2nc(-c3cccs3)no2)cc1 [Compound A-3134]	> 50.0	> 50	> 50	> 50	7.8	–	–	–
CCCc1ccc(-c2nc(-c3ccc(C)cc3)no2)cc1 [Compound A-3136]	> 50.0	12.5	7.5	> 50	4.8	–	–	–
FC(F)Oc1ccc(-c2nc(-c3cccs3)no2)cc1 [Compound A-4340, 5-(4-(Difluoromethoxy)phenyl)-3-(thiophen-2-yl)-1,2,4-oxadiazole]	> 50.0	25	> 50	> 50	4	–	–	–
c1ccc(-c2nc(-c3cccs3)no2)cc1 [Compound A-4347, 5-Phenyl-3-(thiophen-2-yl)-1,2,4-oxadiazole]	> 50.0	> 50	> 50	> 50	> 50	–	–	–
FC(F)(F)Oc1ccc(-c2nc(-c3cccs3)no2)cc1 [Compound A-6316, 3-(Thiophen-2-yl)-5-(4-(trifluoromethoxy)phenyl)-1,2,4-oxadiazole]	> 50.0	> 50	> 50	> 50	9.8	–	–	–
CCCc1ccc(-c2nc(-c3ccc(OC)cc3)no2)cc1 [Compound A-6318, 3-(4-Methoxyphenyl)-5-(4-propylphenyl)-1,2,4-oxadiazole]	48.2	1.6	38	> 50	1.4	–	–	–
FC(F)Oc1ccc(-c2nc(-c3ccc(C(F)(F)F)cc3)no2)cc1 [Compound A-6325, 5-(4-(Difluoromethoxy)phenyl)-3-(4-(trifluoromethyl)phenyl)-1,2,4-oxadiazole]	36.3	3.1	> 50	> 50	1.4	–	–	–
CCCc1ccc(-c2nc(-c3ccc(C(F)(F)F)cc3)no2)cc1 [Compound A-6501]	> 50.0	6.3	> 50	> 50	1.6	–	–	–
c1ccc(COc2ccc(CCC3OCCO3)cc2)cc1 [MBHF-hit32, 2-[4-(benzyloxy)phenethyl]-1,3-dioxolane]	–	–	–	–	–	< 80	71.1	–
FC(F)(F)c1ccc(SCc2ccc(-c3ncns3)cc2)nc1 [MBHF-hit33, 5-[4-({[5-(trifluoromethyl)-2-pyridyl]thio}methyl)phenyl]-1,2,4-thiadiazole]	–	–	–	–	–	80 to 99	70.3	Cur, Evi
CSC(=NS(=O)(=O)c1ccc(C)cc1)N(C)C [MBHF-hit34, N1-[(dimethylamino)(methylthio)methylidene]-4-methylbenzene-1-sulfonamide]	–	–	–	–	–	< 80	70.3	–
OC(CNCCNc1nccc(C(F)(F)F)n1)c1ccccc1 (stereo not shown) [MBHF-hit35, 1-phenyl-2-[(2-{[4-(trifluoromethyl)pyrimidin-2-yl]amino}ethyl)amino]ethan-1-ol]	–	–	–	–	–	< 80	70.2	–
CCOC(=O)c1ccc(Oc2ccc(Cl)cc2Cl)c([N+](=O)[O-])c1 [MBHF-hit36, ethyl 4-(2,4-dichlorophenoxy)-3-nitrobenzoate]	–	–	–	–	–	< 80	70.2	–
c1ccc(-c2noc(-c3cccs3)n2)cc1 [Tioxazafen, 3-Phenyl-5-(thiophen-2-yl)-1,2,4-oxadiazole, reference compound]	> 50.0	> 50	> 50	> 50	> 50	–	–	–
